Key:
[1] = rhesus monkey, cited from earlier work
[2] = target: α3 subunit-containing GABAA receptors (Homo sapiens, UniProt P18507+P34903); parameters: key: act as partial positive modulators for particular subtype combinations; none: zero efficacy (i.e., antagonism) at other subtypes; conditions: cited from earlier work
GABAA receptor subtypes = conditions: cited from earlier work
rats = experiment: Blockade of diazepam suppression of responding (30 min pretreatment); type: in vivo, rat; conditions: ligand 3.0 mg/kg; diazepam 30 min pretreatment; FIG. 12A; N=5
Protocol: This profile is very similar to that of TPA023B despite the structural differences. […] For both compounds, we chose 3.0 mg/kg, i.p., in rats based on published literature or pilot studies in our laboratories.
FIGS. 12A and 12B illustrate the results of acute dependency testing using these compounds.

[3] = target: α5 subunit-containing GABAA receptors (Homo sapiens, UniProt P18507+P31644); parameters: key to Subtype α5: act as partial positive modulators for particular subtype combinations; none: zero efficacy (i.e., antagonism) at other subtypes; conditions: cited from earlier work
Chain of α5 subunit-containing GABAA receptors (P31644 32-462): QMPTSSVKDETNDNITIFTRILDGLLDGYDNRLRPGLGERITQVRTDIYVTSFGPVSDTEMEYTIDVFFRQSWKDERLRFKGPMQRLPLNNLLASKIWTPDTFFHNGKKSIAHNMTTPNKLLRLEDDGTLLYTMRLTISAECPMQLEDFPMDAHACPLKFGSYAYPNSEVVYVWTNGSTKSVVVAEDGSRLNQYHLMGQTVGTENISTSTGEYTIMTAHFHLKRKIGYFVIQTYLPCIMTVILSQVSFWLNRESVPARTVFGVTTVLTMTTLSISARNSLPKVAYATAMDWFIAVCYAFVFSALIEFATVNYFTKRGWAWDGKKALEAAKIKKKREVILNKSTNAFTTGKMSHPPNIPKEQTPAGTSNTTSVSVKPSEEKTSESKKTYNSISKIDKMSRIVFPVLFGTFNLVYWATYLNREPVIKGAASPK
Chain of α5 subunit-containing GABAA receptors (P18507 40-475): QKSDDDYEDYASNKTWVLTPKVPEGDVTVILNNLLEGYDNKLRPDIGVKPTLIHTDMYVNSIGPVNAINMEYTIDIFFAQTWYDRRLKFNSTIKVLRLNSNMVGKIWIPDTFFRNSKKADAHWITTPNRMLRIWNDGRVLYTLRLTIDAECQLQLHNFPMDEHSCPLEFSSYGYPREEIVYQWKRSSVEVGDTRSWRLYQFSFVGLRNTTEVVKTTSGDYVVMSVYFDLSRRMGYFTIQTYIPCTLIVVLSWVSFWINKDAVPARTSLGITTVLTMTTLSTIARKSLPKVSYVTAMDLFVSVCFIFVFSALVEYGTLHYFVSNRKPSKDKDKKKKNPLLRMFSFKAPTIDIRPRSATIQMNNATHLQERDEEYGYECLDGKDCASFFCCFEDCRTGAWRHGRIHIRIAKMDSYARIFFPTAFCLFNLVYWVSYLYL
Chain of α5 subunit-containing GABAA receptors (P28472 26-473 partner): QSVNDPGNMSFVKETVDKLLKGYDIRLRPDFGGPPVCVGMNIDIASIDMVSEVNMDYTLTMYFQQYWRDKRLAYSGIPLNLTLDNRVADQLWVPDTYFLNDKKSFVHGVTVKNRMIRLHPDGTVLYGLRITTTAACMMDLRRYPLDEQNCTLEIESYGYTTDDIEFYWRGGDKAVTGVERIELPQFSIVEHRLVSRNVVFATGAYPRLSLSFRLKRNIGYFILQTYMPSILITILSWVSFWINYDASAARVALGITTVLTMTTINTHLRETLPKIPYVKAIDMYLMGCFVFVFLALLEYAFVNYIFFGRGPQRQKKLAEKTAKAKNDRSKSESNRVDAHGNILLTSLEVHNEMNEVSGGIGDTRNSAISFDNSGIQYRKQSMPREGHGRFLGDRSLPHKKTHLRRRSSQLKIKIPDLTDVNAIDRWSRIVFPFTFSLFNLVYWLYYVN

[4] = parameters: key to Pharmacokinetics: “poor” - low bioavailability and/or short half-life; “good” - potent with long half-life; conditions: in vivo; cited from earlier work
[5] = target: α1 subunit-containing GABAA receptors (Homo sapiens, UniProt P14867+P18507); parameters: key to Subtype α1: act as partial positive modulators for particular subtype combinations; none: zero efficacy (i.e., antagonism) at other subtypes; conditions: cited from earlier work
Chain of α1 subunit-containing GABAA receptors (P14867 28-456): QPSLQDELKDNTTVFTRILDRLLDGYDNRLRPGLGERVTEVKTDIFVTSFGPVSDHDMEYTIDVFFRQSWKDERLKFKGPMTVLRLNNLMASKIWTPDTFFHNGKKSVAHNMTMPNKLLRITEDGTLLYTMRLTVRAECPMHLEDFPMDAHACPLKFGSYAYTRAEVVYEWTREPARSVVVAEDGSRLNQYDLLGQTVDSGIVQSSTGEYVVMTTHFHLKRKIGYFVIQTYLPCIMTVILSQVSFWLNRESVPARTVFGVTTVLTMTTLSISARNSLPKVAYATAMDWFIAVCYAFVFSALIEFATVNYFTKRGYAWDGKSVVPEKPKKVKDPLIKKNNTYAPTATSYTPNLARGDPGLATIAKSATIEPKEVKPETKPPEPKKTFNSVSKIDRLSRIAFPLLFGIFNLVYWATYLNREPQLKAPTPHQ
Chain of α1 subunit-containing GABAA receptors (P18507 40-475): as the sequence (P18507 40-475) above
Chain of α1 subunit-containing GABAA receptors (P28472 26-473 partner): as the sequence (P28472 26-473 partner) above

[6] = target: α2 subunit-containing GABAA receptors (Homo sapiens, UniProt P18507+P47869); parameters: key: act as partial positive modulators for particular subtype combinations; none: zero efficacy (i.e., antagonism) at other subtypes; conditions: cited from earlier work
Chain of α2 subunit-containing GABAA receptors (P47869 29-451): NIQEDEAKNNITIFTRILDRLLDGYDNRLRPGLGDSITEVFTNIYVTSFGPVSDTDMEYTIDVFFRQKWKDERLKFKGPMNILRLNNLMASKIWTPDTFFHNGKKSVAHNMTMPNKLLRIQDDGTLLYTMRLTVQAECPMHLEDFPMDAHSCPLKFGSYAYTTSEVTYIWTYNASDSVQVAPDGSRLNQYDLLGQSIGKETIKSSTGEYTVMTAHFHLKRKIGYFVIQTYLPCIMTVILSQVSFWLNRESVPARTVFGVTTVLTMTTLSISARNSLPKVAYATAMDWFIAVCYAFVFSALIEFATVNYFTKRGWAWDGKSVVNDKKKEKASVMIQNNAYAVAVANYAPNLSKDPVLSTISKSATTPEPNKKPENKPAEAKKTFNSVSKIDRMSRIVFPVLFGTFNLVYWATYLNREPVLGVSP
Chain of α2 subunit-containing GABAA receptors (P18507 40-475): as the sequence (P18507 40-475) above
Chain of α2 subunit-containing GABAA receptors (P28472 26-473 partner): as the sequence (P28472 26-473 partner) above

Sprague-Dawley rats = experiment: Precipitated withdrawal/acute dependence: responding 60 min after diazepam bolus; type: in vivo, rat; conditions: ligand 3.0 mg/kg; FIG. 12B; N=5
Protocol: Acute dependence can occur after single exposures to the benzodiazepine chlordiazepoxide, but not to an α2/3GABAA selective ligand (Fischer et al. 2013, Psychopharmacology 227: 347-54). Here, the extent to which TPA023B can precipitate withdrawal in rats following a single, large bolus dose of diazepam was studied. […] Once rates of responding were stable, doses of diazepam, the non-selective benzodiazepine antagonist flumazenil, and TPA023B were administered prior to the session.

[7] = tested on: patients with Generalized Anxiety Disorder; conditions: cited from earlier work
rhesus monkeys [8] = experiment: i.v. self-administration under progressive-ratio (PR) schedule; type: in vivo, rhesus monkey; conditions: dose at which self-administration was highest; n=4 monkeys; FIG. 5
From the text: The abuse potential of novel compounds can be determined by use of i.v. self-administration procedures, in which a compound is available to a subject previously trained to press a lever to obtain a known drug of abuse. Our standard procedure is to use a progressive-ratio (PR) schedule, in which an increasing number of responses are required to obtain an injection. The last response requirement completed is referred to as a “break point” (BP) and represents the maximum amount of “work” a subject will perform to obtain the drug or compound.
In the present example, eight rhesus monkeys (4 females, 4 males) were trained to respond under a schedule of i.v. midazolam (a conventional benzodiazepine) injection at 0.03 mg/kg/injection. Once self-administration had been acquired (>20 injections/daily 2-hour sessions), monkeys were trained under the PR schedule as described by Shinday et al. (2013). Daily experimental sessions consisted of five components, each made up of four trials (i.e., 20 trials total). […]
In order to directly compare lorazepam and TPA023B self-administration, we here analyzed BP values at the doses that maintained the highest level of mean injections/session and compared these BP values with those obtained after vehicle tests.

rhesus monkeys [9] = conditions: visual recognition memory and spatial working memory; cited from earlier work

Chain of α3 subunit-containing GABAA receptors (P34903 29-492): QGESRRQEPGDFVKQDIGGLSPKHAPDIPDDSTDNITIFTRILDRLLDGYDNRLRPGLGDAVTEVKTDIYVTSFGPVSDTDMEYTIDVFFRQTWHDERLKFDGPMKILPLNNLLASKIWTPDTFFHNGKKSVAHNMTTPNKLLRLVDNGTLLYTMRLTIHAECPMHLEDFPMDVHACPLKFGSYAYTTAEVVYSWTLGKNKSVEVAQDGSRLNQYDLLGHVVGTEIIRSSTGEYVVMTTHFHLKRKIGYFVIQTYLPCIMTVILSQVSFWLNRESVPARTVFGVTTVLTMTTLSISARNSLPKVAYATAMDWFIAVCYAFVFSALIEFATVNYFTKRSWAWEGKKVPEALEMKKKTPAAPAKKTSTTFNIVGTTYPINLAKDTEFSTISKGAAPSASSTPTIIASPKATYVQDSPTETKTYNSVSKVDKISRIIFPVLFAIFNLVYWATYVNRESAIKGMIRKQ
Chain of α3 subunit-containing GABAA receptors (P18507 40-475): as the sequence (P18507 40-475) above
Chain of α3 subunit-containing GABAA receptors (P28472 26-473 partner): as the sequence (P28472 26-473 partner) above

Row | Structure (SMILES) | Subtype α3 [2] | Subtype α5 [3] | Pharmacokinetics [4] | Subtype α1 [5] | Subtype α2 [6] | also measured
1 | CC(C)(O)c1ccn2c(-c3ccc(F)c(-c4cccnc4)c3)cnc2n1 [MRK-623] | partial | none | poor | none | partial | bioavailability (in words) ([1]; in vivo): fair; half-life [1]: 30 min; functional/subtype selectivity (GABAA receptor subtypes): α2/3GABAA subtype selective; ability of diazepam to suppress rates of responding (rats): blocked; rates of responding after 60-min pretreatment of diazepam (acute dependence) (Sprague-Dawley rats): neither L-838,417 nor MRK-623 altered rates of responding
2 | CCn1ncnc1COc1nn2c(-c3ccccc3F)nnc2cc1C(C)(C)C [TPA023] | partial | none | good | none | partial | adverse effects leading to halt in Phase II ([7]; human, in vivo): cataract development; anxiolysis in patients with Generalized Anxiety Disorder ([7]; post hoc analyses, three clinical trials): significant anxiolysis; efficacy at α1GABAA subtype [5]: no efficacy
3 | O=C1Nc2ccc(Cl)cc2C(c2ccccc2Cl)=NC1O (centres unmarked) [lorazepam, reference compound] | – | – | – | – | – | median break point (BP), highest response requirement (rhesus monkeys [8]): 320
4 | Cc1nnc2n1-c1ccc(Cl)cc1C(c1ccccc1Cl)=NC2 [triazolam, reference compound] | – | – | – | – | – | accuracy in DMTS and SOSS tasks (rhesus monkeys [9]): significantly reduced accuracy
